Where only a bound is given, the exact number is not on record here.

One assay deals with T1, PLK4 (h) (Homo sapiens, UniProt O00444).
T1 sequence (O00444 1-970): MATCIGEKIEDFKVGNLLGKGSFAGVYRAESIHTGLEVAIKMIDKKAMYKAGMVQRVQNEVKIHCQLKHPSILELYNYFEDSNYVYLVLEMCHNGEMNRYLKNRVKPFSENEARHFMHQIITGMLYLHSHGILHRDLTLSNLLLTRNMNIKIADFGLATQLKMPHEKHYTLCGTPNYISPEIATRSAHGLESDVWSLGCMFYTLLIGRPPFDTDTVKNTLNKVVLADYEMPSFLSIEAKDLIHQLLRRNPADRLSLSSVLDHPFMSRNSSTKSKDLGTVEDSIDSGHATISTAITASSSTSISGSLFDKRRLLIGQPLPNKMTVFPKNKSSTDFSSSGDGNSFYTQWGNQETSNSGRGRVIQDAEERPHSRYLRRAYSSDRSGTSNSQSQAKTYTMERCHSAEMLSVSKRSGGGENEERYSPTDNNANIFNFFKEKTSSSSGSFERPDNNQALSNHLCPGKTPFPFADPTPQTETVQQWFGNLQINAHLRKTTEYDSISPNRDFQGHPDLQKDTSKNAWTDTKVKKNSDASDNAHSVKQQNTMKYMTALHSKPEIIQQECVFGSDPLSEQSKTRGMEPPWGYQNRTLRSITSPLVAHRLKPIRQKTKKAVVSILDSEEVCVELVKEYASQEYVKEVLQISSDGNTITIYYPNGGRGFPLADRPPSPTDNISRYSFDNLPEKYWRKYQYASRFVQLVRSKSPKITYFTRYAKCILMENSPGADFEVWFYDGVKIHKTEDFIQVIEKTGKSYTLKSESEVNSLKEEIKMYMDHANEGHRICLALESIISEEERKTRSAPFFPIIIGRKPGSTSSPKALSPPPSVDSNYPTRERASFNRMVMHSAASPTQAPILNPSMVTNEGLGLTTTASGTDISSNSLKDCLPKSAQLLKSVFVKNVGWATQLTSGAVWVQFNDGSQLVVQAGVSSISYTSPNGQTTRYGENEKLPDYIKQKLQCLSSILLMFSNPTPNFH
In words: PLK-4 human kinase scintillation proximity assay (SPA). The class given is biochemical. As to conditions: 1 μM ATP, 60 minutes at r.t., read-out: PLK4 pIC50 (converted). In outline:
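Scintillation proximity read-out: EDTA-stopped reactions were captured on streptavidin SPA beads after PLK4 (19 μg/ml) had phosphorylated 10 μM biotin-peptide for 60 min at room temperature, using 1 μM ATP spiked with 2 nM 33P-ATP in pH 8.0 HEPES buffer.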
For orientation: SPA uses beads or plates that emit light when radiolabelled molecules are held near them.

Another assay relates to H1299. Kind of assay: Cellular proliferation assay (Alamar blue), H1299. The class given is cell-based. The note with it: Homo sapiens, NCI-H1299, H1299 cells; 10% FCS; 72 h with compound; Alamar blue 4 h; read-out: pIC50 H1299 (converted). Summed up:
(§1)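 Viable cell number is determined by Alamar blue conversion after cells are treated with compound for 72 hours, following 24 hours of growth without compound in 10% FCS. The effect is calculated against control cells.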
Background: Resazurin is reduced to fluorescent resorufin, in cell work by metabolically active cells.

The next assay has as its system A2780. Kind of assay: Cellular proliferation assay (Alamar blue), A2780. Format: cell-based. As to conditions: Homo sapiens, A2780, A2780 cells; 10% FCS; 72 h with compound; Alamar blue 24 h; read-out: pIC50 A2780 (converted). In outline:
(§2)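 Resazurin-based Alamar blue fluorescence (544/590 nm) measured viable cell number after 72 h compound exposure, following 24 h compound-free seeding, with 10% FCS, 37° C, 5% CO2. Dye incubation lasted 24 h for PC3 and A2780, 6 h for U87-MG, 4 h for HCT-116; results relative to untreated controls.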

A further assay concerns PC3. Kind of assay: Cellular proliferation assay (Alamar blue), PC3. Format: cell-based. The note with it: Homo sapiens, PC-3, PC-3 cells; 10% FCS; 72 h with compound; Alamar blue 24 h; read-out: pIC50 PC-3 (converted). In outline:
as §2

The subject of a further assay is MDA-MB-231. Kind of assay: Cellular proliferation assay (Alamar blue), MDA-MB-231. Format: cell-based. As to conditions: Homo sapiens, MDA-MB-231, MDA-MB-231 cells; 10% FCS; 72 h with compound; Alamar blue 24 h; read-out: pIC50 MDA/MB231 (converted). In outline: as §1
The test system of the next assay is U87-MG. Kind of assay: Cellular proliferation assay (Alamar blue), U87-MG. Format: cell-based. The note with it: Homo sapiens, U-87 MG; U87-MG cells; 10% FCS; 72 h with compound; Alamar blue 6 h; read-out: pIC50 U87MG (converted). Summed up: as §2
The test system of a further assay is HCT-116. Kind of assay: Cellular proliferation assay (Alamar blue), HCT-116. The class given is cell-based. As to conditions: Homo sapiens; HCT-116 cells; 10% FCS; 72 h with compound; Alamar blue 4 h; read-out: pIC50 HCT-116 (converted). In outline: as §2

With `O=C1CCCOc2cc(ccc2Cl)Nc2ncnc3[nH]cc(c23)CN2CCN1CC2` [Compound 106], the IC50 on PLK4 (h) is 6.31 µM; in the assay on H1299, > 10 µM; in the assay on A2780, > 10 µM; with PC3 it was > 10 µM; with MDA-MB-231, > 10 µM; in the assay on U87-MG, > 10 µM. Moreover, in the assay on HCT-116, the IC50 is > 10 µM.
For the compound `COCCN1CC(=O)N(C)CCCc2c[nH]c3ncnc(c23)Nc2cc(c(OC)c(OC)c2)C1` [Compound 124], the IC50 at PLK4 (h), in the assay with H1299, in the assay with A2780, with PC3, in the assay on MDA-MB-231 and in the assay on U87-MG was > 10 µM each time. Moreover, the IC50 in the assay on HCT-116 was > 10 µM.
Take `O=C1CCCCOc2cccc(c2)Nc2ncnc3[nH]cc(c23)CN2CCN1CC2` [Compound 86]: the IC50 on PLK4 (h), with H1299, with A2780, with PC3, in the assay on MDA-MB-231 and in the assay on U87-MG was > 10 µM each time. In addition, the IC50 in the assay with HCT-116 was > 10 µM.
Take `CN1CCN(C)C(=O)COc2cc(ccc2Cl)Nc2ncnc3[nH]cc(c23)C1` [Compound 98]: the IC50 is 0.1 µM at PLK4 (h); > 10 µM in the assay with H1299; > 10 µM with A2780; > 10 µM in the assay on PC3; > 10 µM in the assay on MDA-MB-231; 6.31 µM in the assay with U87-MG. For the same compound, the IC50 in the assay with HCT-116 is 5.01 µM.
For `CN1CCCN(C)C(=O)COc2cc(cc(C(F)(F)F)c2)Nc2ncnc3[nH]cc(c23)C1` [Compound 54], the IC50 is 0.251 µM on PLK4 (h); > 10 µM with H1299; > 10 µM in the assay on A2780; > 10 µM in the assay with PC3; > 10 µM with MDA-MB-231; > 10 µM with U87-MG. Moreover, the IC50 in the assay with HCT-116 was > 10 µM.
Consider `COc1ccc2cc1CN1CCCC(C1)C(=O)N(C)CCCc1c[nH]c3ncnc(c13)N2` (stereo not shown) [Compound 35], for which the IC50 at PLK4 (h), in the assay on H1299, in the assay on A2780, in the assay with PC3, in the assay on MDA-MB-231 and in the assay on U87-MG was > 10 µM each time. In addition, the IC50 in the assay on HCT-116 is > 10 µM.
In the case of `O=C1CCCCOc2cc(ccc2N2CCOCC2)Nc2ncnc3[nH]cc(c23)CN2CCN1CC2` [Compound 121], the IC50 is 6.31 µM at PLK4 (h); > 10 µM in the assay on H1299; > 10 µM in the assay with A2780; > 10 µM in the assay with PC3; > 10 µM in the assay with MDA-MB-231; > 10 µM in the assay with U87-MG. In addition, the IC50 in the assay with HCT-116 is > 10 µM.
With `COc1cc2cc(c1OC)CCC(=O)N(C)CCN(C)Cc1c[nH]c3ncnc(c13)N2` [Compound 47], the IC50 is 6.31 µM on PLK4 (h); > 10 µM with H1299; > 10 µM with A2780; > 10 µM in the assay with PC3; > 10 µM in the assay on MDA-MB-231; > 10 µM with U87-MG. Moreover, the IC50 with HCT-116 was > 10 µM.
`CN1CCCN(C)C(=O)COc2cc(ccc2OCCSc2nccn2C)Nc2ncnc3[nH]cc(c23)C1` [Compound 143]: the IC50 on PLK4 (h) was 0.0631 µM; with H1299, 6.31 µM; in the assay on A2780, 1.26 µM; in the assay with PC3, 5.01 µM; in the assay with MDA-MB-231, 5.01 µM; in the assay on U87-MG, 3.16 µM. The IC50 in the assay on HCT-116 is 1.58 µM.
Consider `CN1CCCCN(C)C(=O)COc2cc(ccc2OCC(=O)Nc2ccc(Cl)cc2)Nc2ncnc3[nH]cc(c23)C1` [Compound 133], for which the IC50 was 0.0631 µM on PLK4 (h); 0.2 µM with H1299; 0.0631 µM in the assay on A2780; 2.51 µM with PC3; 3.16 µM in the assay on MDA-MB-231; 2.51 µM with U87-MG. In the assay with HCT-116, the IC50 is 0.0794 µM.
For the compound `COc1ccc2cc1CN(C(C)C)CC(=O)N(C)CCCc1c[nH]c3ncnc(c13)N2` [Compound 37], the IC50 at PLK4 (h), in the assay with H1299, with A2780, in the assay with PC3, in the assay with MDA-MB-231 and with U87-MG was > 10 µM in each case. Further, the IC50 in the assay with HCT-116 was > 10 µM.
For the compound `CN1CCCN(C)C(=O)COc2cc(ccc2N2CCCC2)Nc2ncnc3[nH]cc(c23)C1` [Compound 82], the IC50 on PLK4 (h) is 0.0794 µM; in the assay on H1299 it was 2 µM; with A2780 it was 2 µM; in the assay with PC3, 3.16 µM; with MDA-MB-231 it was 7.94 µM; in the assay on U87-MG, 1.58 µM. Besides, in the assay on HCT-116, the IC50 is 1.26 µM.
Regarding `COc1ccc2cc1OCC(=O)N(C)CCCN(Cc1ccncc1)Cc1c[nH]c3ncnc(c13)N2` [Compound 62], the IC50 was 0.631 µM on PLK4 (h); > 10 µM with H1299; > 10 µM in the assay with A2780; > 10 µM in the assay with PC3; > 10 µM with MDA-MB-231; > 10 µM in the assay with U87-MG. In the assay with HCT-116, the IC50 is > 10 µM.
For the compound `COc1cc2cc(c1OC)OCCCCC(=O)N1CCN(CC1)Cc1c[nH]c3ncnc(c13)N2` [Compound 111], the IC50 at PLK4 (h), with H1299, in the assay on A2780, with PC3, with MDA-MB-231 and with U87-MG was > 10 µM each time. Besides, in the assay on HCT-116, the IC50 is > 10 µM.
In the case of `COc1ccc(NC(=O)Nc2ccc3cc2OCC(=O)N(C)CCCN(C)Cc2c[nH]c4ncnc(c24)N3)cc1` [Compound 15], the IC50 was 0.0251 µM on PLK4 (h); > 10 µM in the assay on H1299; 0.794 µM with A2780; > 10 µM in the assay with PC3; > 10 µM with MDA-MB-231; 2 µM with U87-MG. For the same compound, the IC50 with HCT-116 was 0.794 µM.
As to `CN1CCCN(C)C(=O)COc2cc(ccc2NC(=O)Nc2ccc(Cl)cc2)Nc2ncnc3[nH]cc(c23)C1` [Compound 116], the IC50 on PLK4 (h) is 0.0316 µM; in the assay with H1299, 0.631 µM; in the assay on A2780 it was 0.0794 µM; with PC3, 6.31 µM; in the assay with MDA-MB-231 it was 5.01 µM; with U87-MG it was 3.98 µM. Also, the IC50 with HCT-116 is 0.2 µM.
With `O=C1CCCCOc2cc(cc(C(F)(F)F)c2)Nc2ncnc3[nH]cc(c23)CN2CCN1CC2` [Compound 113], the IC50 at PLK4 (h), in the assay with H1299, in the assay with A2780, with PC3, in the assay with MDA-MB-231 and in the assay on U87-MG was > 10 µM each time. In addition, the IC50 in the assay on HCT-116 is > 10 µM.
Regarding `COc1ccc2cc1CCC(=O)N(C)CCN(C)Cc1c[nH]c3ncnc(c13)N2` [Compound 46], the IC50 is 1 µM on PLK4 (h); > 10 µM in the assay on H1299; > 10 µM in the assay with A2780; > 10 µM in the assay on PC3; > 10 µM in the assay with MDA-MB-231; > 10 µM in the assay on U87-MG. Further, the IC50 in the assay with HCT-116 is > 10 µM.
Consider `COc1ccc2cc1OCCCC(=O)N(C)CCCN(C)Cc1c[nH]c3ncnc(c13)N2` [Compound 17], for which the IC50 on PLK4 (h) is 0.251 µM; in the assay on H1299, > 10 µM; in the assay on A2780, > 10 µM; with PC3, > 10 µM; with MDA-MB-231, > 10 µM; in the assay with U87-MG it was > 10 µM. Further, the IC50 in the assay with HCT-116 was > 10 µM.

The record behind these values is patent US8318731B2, “Pyrrolopyrimidines” (Janssen Pharmaceutica NV, priority 2007, dated 2012).
